# Biological target: Cannabinoid receptor 2 (Homo sapiens, UniProt P34972)
# Sequence (P34972 whole entry): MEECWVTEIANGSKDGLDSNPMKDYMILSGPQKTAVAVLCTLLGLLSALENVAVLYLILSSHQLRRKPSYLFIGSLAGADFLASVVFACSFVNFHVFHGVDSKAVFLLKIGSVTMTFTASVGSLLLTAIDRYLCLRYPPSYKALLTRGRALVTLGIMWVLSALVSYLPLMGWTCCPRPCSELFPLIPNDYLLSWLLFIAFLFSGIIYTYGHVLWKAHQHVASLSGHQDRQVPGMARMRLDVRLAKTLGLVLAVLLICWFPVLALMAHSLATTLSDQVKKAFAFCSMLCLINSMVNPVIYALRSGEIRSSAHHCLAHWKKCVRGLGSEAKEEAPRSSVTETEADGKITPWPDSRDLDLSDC
compound,measurement,value
O=C(c1cc2c(cc1F)OC(c1ccc(F)cc1)(c1ccc(Cl)cc1Cl)O2)N1CCOCC1 (stereo unspecified) [CAS_24828562],Ki,3 nM

# — BindingDB's records for doi:10.1021/jm701487t (F. Hoffmann-La Roche, 2008)
